The record followed here is patent publication US6706740B2, “Fungicidal heterocyclic aromatic amides and their compositions, methods of use and preparation” (Dow AgroSciences LLC, priority 1999, dated 2004).

Assay [1] concerns Leptosphaeria nodorum—LEPTNO. As to the kind of experiment: Glume Blotch of Wheat, in vivo whole plant, 24 Hour Protectant. The following applies: 100 ppm spray, 24 hour protectant, wheat, control of fungal infection vs untreated plants; for pest or weed control at 100 ppm: Leptosphaeria, read-out: LEPTNO in vivo 1 Day Protectant.
The test system of assay [2] is Puccinia recondita—PUCCRT. As to the kind of experiment: Brown Rust of Wheat, in vivo whole plant, 24 Hour Protectant. The following applies: 100 ppm spray, 24 hour protectant, wheat, control of fungal infection vs untreated plants; for pest or weed control at 100 ppm: Puccinia, read-out: PUCCRT in vivo 1 Day Protectant.
The subject of assay [3] is Stagonospora nodorum (Leptosphaeria nodorum—LEPTNO). As to the kind of experiment: In vitro fungal growth inhibition, Stagonospora nodorum (LEPTNO). The following applies: Leptosphaeria; 25 ppm in growth medium; read-out: LEPTNO in vitro Growth Inhibition. Format: cell-based.
Assay [4] deals with Magnaporthe grisea (Pyricularia oryzae—PYRIOR). As to the kind of experiment: microbe, parasite or virus in culture. Format: cell-based. The following applies: Pyricularia oryzae, read-out: PYRIOR in vitro Growth Inhibition.
The test system of a further assay is Erysiphe graminis—ERYSGT. Kind of assay: Powdery Mildew of Wheat, in vivo whole plant, 24 Hour Protectant. The following applies: Erysiphe; 100 ppm spray, 24 hour protectant, wheat; control of fungal infection vs untreated plants; read-out: ERYSGT in vivo 1 Day Protectant.
Another assay concerns Septoria tritici—SEPTTR. As to the kind of experiment: Leaf Blotch of Wheat, in vivo whole plant, 24 Hour Protectant. The following applies: 100 ppm spray, 24 hour protectant, wheat, control of fungal infection vs untreated plants; for pest or weed control at 100 ppm: Zymoseptoria tritici, 24 h, read-out: SEPTTR in vivo 1 Day Protectant.
In assay [5] the test system is Phytophthora infestans (PHYTIN). As to the kind of experiment: microbe, parasite or virus in culture. It is filed as cell-based. The following applies: Phytophthora infestans, read-out: PHYTIN in vitro Growth Inhibition.
Assay [6] deals with Phytophthora infestans—PHYTIN. As to the kind of experiment: whole plant or invertebrate. Format: in vivo. The following applies: Phytophthora, in Solanum lycopersicum, 24 h, read-out: PHYTIN in vivo 1 Day Protectant.
Assay [7] relates to Rhizoctonia solani (RHIZSO). As to the kind of experiment: microbe, parasite or virus in culture. It is filed as cell-based. The following applies: Rhizoctonia solani, read-out: RHIZSO in vitro Growth Inhibition.
The subject of assay [8] is Mycosphaerella graminicola (Septoria tritici—SEPTTR). Kind of assay: In vitro fungal growth inhibition, Mycosphaerella graminicola (SEPTTR). The following applies: Zymoseptoria tritici; 25 ppm in growth medium; read-out: SEPTTR in vitro Growth Inhibition. It is filed as cell-based.
The next assay deals with Ustilago maydis (USTIMA). As to the kind of experiment: microbe, parasite or virus in culture. The following applies: Mycosarcoma maydis, read-out: USTIMA in vitro Growth Inhibition. Format: cell-based.

`COc1ccnc(C(=O)NC2C3CC4C(C3Cl)C42)c1O` (stereo not shown) [Compound 304]: the pest or weed control at 100 ppm in [1] was 25 to 74%; in [2], under 25%; with Erysiphe graminis—ERYSGT it was under 25%; in assay [6], under 25%. The inhibition at 25 ppm in assay [3] was under 80%; in [4], under 80%; in assay [5], under 80%; in assay [7], over 80%; in assay [8], under 80%; in the assay on Ustilago maydis (USTIMA), under 80%. The “SEPTTR in vivo 1 Day Protectant” value in the assay on Septoria tritici—SEPTTR was “+ +”.
Consider `COc1ccnc(C(=O)NC2CCN(C(=O)CCc3ccccc3)CC2)c1O` [Compound 309], for which the pest or weed control at 100 ppm in assay [1] is 25 to 74%; in assay [2], under 25%; with Erysiphe graminis—ERYSGT, 25 to 74%; with Septoria tritici—SEPTTR, under 25%; in [6], under 25%. The inhibition at 25 ppm (in [3]; in assay [4]; in [5]; in [7]; in [8]; in the assay on Ustilago maydis (USTIMA)) was under 80% throughout.
Consider `COc1ccnc(C(=O)NC2COC(C)C2)c1O` (stereo not shown) [Compound 310], for which the pest or weed control at 100 ppm in assay [1] was under 25%; in assay [2] it was under 25%; with Erysiphe graminis—ERYSGT, 25 to 74%; in the assay with Septoria tritici—SEPTTR it was under 25%; in assay [6], under 25%. Moreover, the inhibition at 25 ppm (in [3]; in assay [4]; in [5]; in assay [7]; in [8]; with Ustilago maydis (USTIMA)) was under 80% each time.
For `COc1ccnc(C(=O)NC2C[C@H](C)O[C@@](C)(Cc3ccccc3)C2)c1O` (stereo partly shown) [Compound 312], the pest or weed control at 100 ppm is 25 to 74% in [1]; under 25% in [2]; 25 to 74% in the assay with Erysiphe graminis—ERYSGT; 25 to 74% with Septoria tritici—SEPTTR; under 25% in [6]. For the same compound, the inhibition at 25 ppm (in [3]; in [4]; in [5]; in assay [7]; in assay [8]; in the assay with Ustilago maydis (USTIMA)) was under 80% each time.
Consider `COc1ccnc(C(=O)NC2C[C@H](C)O[C@](C)(Cc3ccccc3)C2)c1O` (stereo partly shown) [Compound 313], for which the pest or weed control at 100 ppm in assay [1] was 25 to 74%; in [2] it was 25 to 74%; in the assay on Erysiphe graminis—ERYSGT, 25 to 74%; with Septoria tritici—SEPTTR, 25 to 74%; in assay [6], under 25%. In addition, the inhibition at 25 ppm (in assay [3]; in assay [4]; in [5]; in assay [7]; in assay [8]; in the assay on Ustilago maydis (USTIMA)) was under 80% in each case.
Turning to `CCC1(C)OCC(NC(=O)c2nccc(OC)c2O)CO1` (stereo not shown) [Compound 314], the pest or weed control at 100 ppm in assay [1] was 25 to 74%; in assay [2], under 25%; in the assay with Erysiphe graminis—ERYSGT, under 25%; in the assay with Septoria tritici—SEPTTR it was under 25%; in assay [6], under 25%. The inhibition at 25 ppm (in assay [3]; in assay [4]; in assay [5]; in [7]; in assay [8]; in the assay on Ustilago maydis (USTIMA)) was under 80% in each case.
Regarding `COc1ccnc(C(=O)NC2COC3(CC(C)(C)CC(C)(C)C3)OC2)c1O` [Compound 315], the pest or weed control at 100 ppm in assay [1] is 25 to 74%; in [2] it was under 25%; in the assay with Erysiphe graminis—ERYSGT, under 25%; in the assay on Septoria tritici—SEPTTR it was under 25%; in assay [6], under 25%. The inhibition at 25 ppm (in assay [3]; in assay [4]; in [5]; in assay [7]; in assay [8]; in the assay on Ustilago maydis (USTIMA)) was under 80% in each case.
As to `COc1ccnc(C(=O)N[C@H]2CO[C@H](C(C)Cc3ccc(C(C)(C)C)cc3)OC2)c1O` (stereo partly shown) [Compound 316], the pest or weed control at 100 ppm is 25 to 74% in assay [1], under 25% with Erysiphe graminis—ERYSGT, under 25% in the assay on Septoria tritici—SEPTTR and under 25% in [6]. In addition, the “PUCCRT in vivo 1 Day Protectant” value in [2] is given as “+ +”. Also, the inhibition at 25 ppm is over 80% in assay [3]; over 80% in assay [4]; under 80% in assay [5]; under 80% in assay [7]; under 80% in assay [8]; over 80% with Ustilago maydis (USTIMA).
For the compound `COc1ccnc(C(=O)N[C@H]2CO[C@@H](C(C)Cc3ccc(C(C)(C)C)cc3)OC2)c1O` (stereo partly shown) [Compound 317], the pest or weed control at 100 ppm is under 25% in assay [1], under 25% with Erysiphe graminis—ERYSGT, under 25% in the assay with Septoria tritici—SEPTTR and 25 to 74% in assay [6]. The “PUCCRT in vivo 1 Day Protectant” value in [2] is given as “+ +”. Further, the inhibition at 25 ppm (in assay [3]; in assay [4]; in assay [5]; in [7]; in assay [8]; in the assay with Ustilago maydis (USTIMA)) was under 80% throughout.
`COc1ccnc(C(=O)N[C@H]2CO[C@@](C)(C(C)CC3=C(C)CCCC3(C)C)OC2)c1O` (stereo partly shown) [Compound 318]: the pest or weed control at 100 ppm in [1] was 25 to 74%; in [2], 25 to 74%; with Erysiphe graminis—ERYSGT, under 25%; in the assay with Septoria tritici—SEPTTR it was 25 to 74%; in assay [6], 25 to 74%. Also, the inhibition at 25 ppm in assay [3] is over 80%; in [4], under 80%; in assay [5], over 80%; in assay [7], over 80%; in assay [8], over 80%; in the assay on Ustilago maydis (USTIMA), under 80%.
Consider `COc1ccnc(C(=O)N[C@H]2CC3OC2[C@H](C)[C@@H](OCc2ccccc2)[C@H]3C)c1O` (stereo partly shown) [Compound 321], for which the pest or weed control at 100 ppm in assay [1] was under 25%; in assay [2] it was 25 to 74%; in the assay on Erysiphe graminis—ERYSGT it was under 25%; in the assay with Septoria tritici—SEPTTR, under 25%; in assay [6] it was under 25%. Also, the inhibition at 25 ppm (in assay [3]; in [4]; in assay [5]; in assay [7]; in [8]; in the assay on Ustilago maydis (USTIMA)) was under 80% throughout.
Turning to `COCCCc1ccc2c(c1)OC(C)C(NC(=O)c1nccc(OC)c1O)C2=O` (stereo not shown) [Compound 322], the pest or weed control at 100 ppm in assay [1] was 25 to 74%; in assay [2], 25 to 74%; with Erysiphe graminis—ERYSGT it was 25 to 74%; in the assay on Septoria tritici—SEPTTR, 25 to 74%; in assay [6] it was under 25%. Further, the inhibition at 25 ppm was over 80% in [3]; under 80% in [4]; under 80% in assay [5]; over 80% in assay [7]; under 80% in assay [8]; under 80% with Ustilago maydis (USTIMA).
In the case of `COc1ccnc(C(=O)NC2C(=O)c3ccc(-c4ccco4)cc3OC2C)c1O` (stereo not shown) [Compound 323], in [1], the “LEPTNO in vivo 1 Day Protectant” value was “+ +”. Besides, the figures for the pest or weed control at 100 ppm (in [2]; in the assay with Erysiphe graminis—ERYSGT; in assay [6]) were 25 to 74%, under 25% and under 25%, respectively. For the same compound, the inhibition at 25 ppm in assay [3] was over 80%; in assay [4], over 80%; in assay [5], under 80%; in assay [7], over 80%; in assay [8] it was over 80%; in the assay with Ustilago maydis (USTIMA), under 80%. In addition, the “SEPTTR in vivo 1 Day Protectant” value in the assay with Septoria tritici—SEPTTR is reported as “+ +”.
With `COc1ccnc(C(=O)NC2C3CSC2CN(Cc2ccccc2)C3)c1O` (stereo not shown) [Compound 325], the pest or weed control at 100 ppm in [1] was 25 to 74%; in assay [2] it was under 25%; in the assay with Erysiphe graminis—ERYSGT, under 25%; with Septoria tritici—SEPTTR, under 25%; in assay [6], under 25%. The inhibition at 25 ppm (in assay [3]; in assay [4]; in [5]; in assay [7]; in assay [8]; in the assay on Ustilago maydis (USTIMA)) was under 80% throughout.

In general, inhibition refers to the percentage by which the read-out fell short of the control.
